Values of other authors, collected in patent publication US8835453B2, “Sustained release implant for granisetron” (Development Center for Biotechnology, priority 2008, dated 2014).
Counter-ions that a name gives are not always drawn.

Details: water and normal saline at 20° C.

solubility: soluble
Compound: CN1C2CCCC1CC(NC(=O)c1nn(C)c3ccccc13)C2 (stereo not drawn) [Granisetron hydrochloride, endo-N-(9-methyl-9-azabicyclo[3.3.1]non-3-yl)-1-methyl-1H-indazole-3-carboxamide]
